Experimental data: PubChem BioAssay AID330 (DTP/NCI, 2004)
Where “and” joins values, the source holds several entries; their conditions need not be identical. Identical values can stand only once. Toxic doses and inconclusive results are not listed.

Tested on: P388 leukemia ip, CD2F1 mice, survival T/C
Experiment: NCI In Vivo Anticancer Drug Screen. Data for tumor model P388 Leukemia (intraperitoneal) in CD2F1 (CDF1) mice
Conditions: endpoint: median survival time, higher = longer survival
In short: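 Mice carrying the transplanted tumor received test compound or vehicle. Survival was recorded in each group, and the value is the treated-group measurement divided by that of the vehicle-treated control group.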

[1] = dose: 25.0 mg/kg/injection, schedule: Q01DX009 (ip), vehicle: saline with Tween-80
[2] = dose: 50.0 mg/kg/injection, schedule: Q01DX009 (ip), vehicle: saline with Tween-80
[3] = dose: 100.0 mg/kg/injection, schedule: Q01DX009 (ip), vehicle: saline with Tween-80
[4] = dose: 100.0 mg/kg/injection, schedule: Q04DX003 (ip), vehicle: saline with Tween-80
[5] = dose: 200.0 mg/kg/injection, schedule: Q04DX003 (ip), vehicle: saline with Tween-80
[6] = dose: 400.0 mg/kg/injection, schedule: Q04DX003 (ip), vehicle: saline with Tween-80
[7] = dose: 50.0 mg/kg/injection, schedule: Q01DX005 (ip), vehicle: Klucel (hydroxypropylcellulose) (HPC)
[8] = dose: 100.0 mg/kg/injection, schedule: Q01DX005 (ip), vehicle: Klucel (hydroxypropylcellulose) (HPC)
[9] = dose: 12.5 mg/kg/injection, schedule: Q01DX009 (ip), vehicle: Klucel (hydroxypropylcellulose) (HPC)
[10] = dose: 12.5 mg/kg/injection, schedule: Q01DX005 (ip), vehicle: saline with Tween-80
[11] = dose: 25.0 mg/kg/injection, schedule: Q01DX005 (ip), vehicle: saline with Tween-80
[12] = dose: 50.0 mg/kg/injection, schedule: Q01DX005 (ip), vehicle: saline with Tween-80
[13] = dose: 100.0 mg/kg/injection, schedule: Q01DX005 (ip), vehicle: saline with Tween-80
[14] = dose: 200.0 mg/kg/injection, schedule: Q01DX005 (ip), vehicle: saline with Tween-80
[15] = dose: 60.0 mg/kg/injection, schedule: Q01DX005 (ip), vehicle: saline with Tween-80
[16] = dose: 120.0 mg/kg/injection, schedule: Q01DX005 (ip), vehicle: saline with Tween-80
[17] = dose: 200.0 mg/kg/injection, schedule: Q01DX009 (ip), vehicle: saline with Tween-80
[18] = dose: 400.0 mg/kg/injection, schedule: Q01DX009 (ip), vehicle: saline with Tween-80

## CCC(c1ccc(OCc2ccccc2)cc1)c1cc2c(cc1OCCO)OCO2 (stereo not drawn)
dose: 50.0 mg/kg/injection, schedule: Q01DX005 (ip), vehicle: distilled water + Tween-80
  T/C: 87 % of control
dose: 100.0 mg/kg/injection, schedule: Q01DX005 (ip), vehicle: distilled water + Tween-80
  T/C: 87 % of control
dose: 200.0 mg/kg/injection, schedule: Q01DX005 (ip), vehicle: distilled water + Tween-80
  T/C: 89 % of control

## BrCC[Se]c1ccccc1
[1]
  T/C: 103 % of control
[2]
  T/C: 112 % of control and 117 % of control
[3]
  T/C: 120 % of control and 124 % of control

## Cn1c(=O)c2[nH]c(-c3c[nH]c4ccccc34)nc2n(C)c1=O
[4]
  T/C: 89 % of control
[5]
  T/C: 89 % of control
[6]
  T/C: 86 % of control

## CC1CCN(CC(O)C(C)(C)Oc2ccc(-c3ccccc3)cc2)CC1 (stereo not drawn)
[7]
  T/C: 97 % of control
[8]
  T/C: 93 % of control

## ClCc1ccc(Oc2ccc(CCl)cc2)cc1
[9]
  T/C: 120 % of control

## COc1ccc2nc3cc(Cl)ccc3c(NN3CCN(CCO)CC3)c2c1
dose: 0.19 mg/kg/injection, schedule: Q01DX009 (ip), vehicle: DMSO
  T/C: 86 % of control
dose: 0.38 mg/kg/injection, schedule: Q01DX009 (ip), vehicle: DMSO
  T/C: 98 % of control and 89 % of control
dose: 0.75 mg/kg/injection, schedule: Q01DX009 (ip), vehicle: DMSO
  T/C: 98 % of control
dose: 1.5 mg/kg/injection, schedule: Q01DX009 (ip), vehicle: DMSO
  T/C: 107 % of control and 95 % of control
dose: 23.0 micrograms/kg/injection, schedule: Q01DX009 (ip), vehicle: DMSO
  T/C: 87 % of control
dose: 47.0 micrograms/kg/injection, schedule: Q01DX009 (ip), vehicle: DMSO
  T/C: 91 % of control
dose: 94.0 micrograms/kg/injection, schedule: Q01DX009 (ip), vehicle: DMSO
  T/C: 89 % of control

## CCCCCN(CCCCC)CC(O)c1c(Cl)ccc2ccccc12 (stereo not drawn)
[10]
  T/C: 106 % of control
[11]
  T/C: 103 % of control
[12]
  T/C: 103 % of control and 97 % of control
[13]
  T/C: 106 % of control
[14]
  T/C: 112 % of control

## C/C(=N\NC(=O)CCl)C(C)(C)C
dose: 25.0 mg/kg/injection, schedule: Q01DX009 (ip), vehicle: saline
  T/C: 111 % of control
dose: 50.0 mg/kg/injection, schedule: Q01DX009 (ip), vehicle: saline
  T/C: 109 % of control
dose: 100.0 mg/kg/injection, schedule: Q01DX009 (ip), vehicle: saline
  T/C: 103 % of control

## CC1=C(c2ccco2)C(c2ccco2)OC1=O (stereo not drawn)
[15]
  T/C: 102 % of control
[16]
  T/C: 103 % of control
dose: 240.0 mg/kg/injection, schedule: Q01DX005 (ip), vehicle: saline with Tween-80
  T/C: 103 % of control

## Cc1c(COC(=O)NC(C)C)c(COC(=O)NC(C)C)c2n1CS(=O)C2 (stereo not drawn)
[10]
  T/C: 104 % of control
[11]
  T/C: 111 % of control
[12]
  T/C: 118 % of control
[14]
  T/C: 176 % of control

## OC1CC(OCc2ccccc2)CC1O (stereo not drawn)
[2]
  T/C: 103 % of control
[3]
  T/C: 97 % of control
[17]
  T/C: 103 % of control

## CCCCNCCC(SS)c1ccc(Cl)cc1 (stereo not drawn)
[1]
  T/C: 110 % of control
[2]
  T/C: 100 % of control
[3]
  T/C: 100 % of control

## O=C(Oc1ccc(C2c3cc(OC(=O)c4ccccc4)c(OC(=O)c4ccccc4)cc3CC3C(=O)OCC32)cc1OC(=O)c1ccccc1)c1ccccc1 (stereo not drawn)
[12]
  T/C: 88 % of control
[14]
  T/C: 86 % of control

## O=C1OC[C@@H]2C=CC[C@H]12
dose: 50.0 mg/kg/injection, schedule: Q01DX005 (ip), vehicle: saline
  T/C: 100 % of control
dose: 100.0 mg/kg/injection, schedule: Q01DX005 (ip), vehicle: saline
  T/C: 100 % of control
dose: 200.0 mg/kg/injection, schedule: Q01DX005 (ip), vehicle: saline
  T/C: 107 % of control

## O=S1(=O)CC2(N3CCOCC3)CCCCCC21 (stereo not drawn)
[4]
  T/C: 103 % of control
[5]
  T/C: 100 % of control
[6]
  T/C: 100 % of control

## O=C(Nc1nnc(-c2ccccc2)s1)c1cc(=O)c2cc(Cl)ccc2o1
[7]
  T/C: 114 % of control
[8]
  T/C: 98 % of control
dose: 200.0 mg/kg/injection, schedule: Q01DX005 (ip), vehicle: Klucel (hydroxypropylcellulose) (HPC)
  T/C: 106 % of control

## CCOC(=O)c1ccc(S(C)(=O)=O)cc1
[1]
  T/C: 104 % of control
[2]
  T/C: 95 % of control
[3]
  T/C: 100 % of control
[17]
  T/C: 100 % of control

## CCSCCC1(CCC(C)C)C(=O)NC(=Nc2ccccc2)NC1=O (stereo not drawn)
[2]
  T/C: 99 % of control
[3]
  T/C: 95 % of control
[17]
  T/C: 99 % of control
[18]
  T/C: 95 % of control

## Cc1noc(C)c1Br
[2]
  T/C: 97 % of control
[3]
  T/C: 102 % of control
[17]
  T/C: 102 % of control

## COc1ccc2c(ccc3c(=O)c4c([nH]c32)CCC4)n1
dose: 12.5 mg/kg/injection, schedule: Q04DX002 (ip), vehicle: saline with Tween-80
  T/C: 111 % of control
dose: 25.0 mg/kg/injection, schedule: Q04DX002 (ip), vehicle: saline with Tween-80
  T/C: 114 % of control
dose: 50.0 mg/kg/injection, schedule: Q04DX002 (ip), vehicle: saline with Tween-80
  T/C: 95 % of control

## C=C1CCC(=O)NC1=O
dose: 6.25 mg/kg/injection, schedule: Q01DX005 (ip), vehicle: saline
  T/C: 105 % of control
dose: 12.5 mg/kg/injection, schedule: Q01DX005 (ip), vehicle: saline
  T/C: 102 % of control
dose: 25.0 mg/kg/injection, schedule: Q01DX005 (ip), vehicle: saline
  T/C: 99 % of control
[12]
  T/C: 116 % of control

## CCC(c1ccc(OC)cc1)C(NCC(=O)NNC(=S)Nc1cccc(C)c1)c1ccc(OC)cc1 (stereo not drawn)
dose: 100.0 mg/kg/injection, schedule: Q01DX001 (ip), vehicle: saline with Tween-80
  T/C: 90 % of control
dose: 200.0 mg/kg/injection, schedule: Q01DX001 (ip), vehicle: saline with Tween-80
  T/C: 96 % of control

## C=C(C(=O)N(C(C)C)C(C)C)C(C)C(C)(C)O (stereo not drawn)
dose: 50.0 mg/kg/injection, schedule: Q04DX002 (ip), vehicle: Klucel (hydroxypropylcellulose) (HPC)
  T/C: 101 % of control
dose: 100.0 mg/kg/injection, schedule: Q04DX002 (ip), vehicle: Klucel (hydroxypropylcellulose) (HPC)
  T/C: 101 % of control

## C1=CC2(C=CCC1)OCCO2
[12]
  T/C: 121 % of control

## COc1ccc(C(=O)c2c(C(=O)NOCCCc3ccccc3)[nH]c(=O)c(C#N)c2C(=O)NOCCCc2ccccc2)cc1
dose: 30.0 mg/kg/injection, schedule: Q01DX005 (ip), vehicle: saline with Tween-80
  T/C: 102 % of control
[15]
  T/C: 105 % of control
dose: 60.0 mg/kg/injection, schedule: Q01DX005 (ip), vehicle: saline
  T/C: 109 % of control
[16]
  T/C: 96 % of control

## CC(C)c1cc(C(F)(F)F)nc(NNc2nc(C(C)C)cc(C(F)(F)F)n2)n1
[2]
  T/C: 104 % of control
[3]
  T/C: 104 % of control
[17]
  T/C: 92 % of control

## O=[N+]([O-])c1ccc(-c2csc(COc3ccccc3)n2)cc1
dose: 50.0 mg/kg/injection, schedule: Q01DX009 (ip), vehicle: gum acacia
  T/C: 98 % of control
dose: 100.0 mg/kg/injection, schedule: Q01DX009 (ip), vehicle: gum acacia
  T/C: 101 % of control
dose: 200.0 mg/kg/injection, schedule: Q01DX009 (ip), vehicle: gum acacia
  T/C: 96 % of control

## COc1ccc(/C=C/c2nnc(N)o2)cc1
[12]
  T/C: 100 % of control
[13]
  T/C: 101 % of control
[14]
  T/C: 105 % of control

## O=C1C2C3CCC(O3)C2C(=O)N1CC#CCCl (stereo not drawn)
dose: 7.5 mg/kg/injection, schedule: Q01DX005 (ip), vehicle: saline with Tween-80
  T/C: 96 % of control
dose: 15.0 mg/kg/injection, schedule: Q01DX005 (ip), vehicle: saline with Tween-80
  T/C: 100 % of control

## CCOC(=O)/C=C/C(F)(F)C(F)(F)C(F)(F)C(F)(F)C(F)(F)C(F)(F)C(F)(F)F
dose: 100.0 mg/kg/injection, schedule: Q04DX003 (ip), vehicle: saline
  T/C: 100 % of control
dose: 200.0 mg/kg/injection, schedule: Q04DX003 (ip), vehicle: saline
  T/C: 100 % of control
dose: 400.0 mg/kg/injection, schedule: Q04DX003 (ip), vehicle: saline
  T/C: 100 % of control

## CCCCCCCCCCCC[N+](C)([O-])CCCCCC[N+](C)([O-])CCCCCCCCCCCC (stereo not drawn)
[9]
  T/C: 96 % of control
dose: 25.0 mg/kg/injection, schedule: Q01DX009 (ip), vehicle: Klucel (hydroxypropylcellulose) (HPC)
  T/C: 95 % of control
dose: 50.0 mg/kg/injection, schedule: Q01DX009 (ip), vehicle: Klucel (hydroxypropylcellulose) (HPC)
  T/C: 100 % of control and 95 % of control

## CC1CCCCC1C(C)(C#N)Nc1ccccc1 (stereo not drawn)
[3]
  T/C: 109 % of control
[17]
  T/C: 113 % of control
[18]
  T/C: 118 % of control
